Columns and labels:
Type in all cases: biochemical
Tyk2 [1] = target: Tyk2 (Homo sapiens, UniProt P29597); experiment: Mobility shift assay, inhibitory activity on Tyk2 kinase; conditions: mobility shift assay; Tyk2 2.5 nM; ATP 1 mM; 3 μM Kinase Substrate 30
Experimental: (§1) Inhibitory Activities of the Compounds on JAK1, JAK2, JAK3 and Tyk2 (IC50)
(§2) The inhibitory activity of compounds on JAK family kinase was analyzed with Mobility shift assay. The screening platform is MSA based microfluidic chip technology, which applies the basic concept of capillary electrophoresis to microfluidic environment. The substrate used in the experiment is a poly-peptide labeled with fluorescent. Under the catalysis of kinase in the reaction system, the substrate is transformed into a product, with the charge changed accordingly. MSA technology could detect the substrate and the product with different charge separately.
(§3) A compound (powder) was dissolved in 100% DMSO to prepare a 10 mM storage solution. […] Detection in duplicate. Baricitinib (Selleckchem, Cat. S2851) was used as positive control. The serially diluted compound was mixed with JAK1/JAK2/JAK3/Tyk2 kinase (Cama, Cat. 08-144/08-045/08-046/08-147) with final concentration of 5 nM/0.125 nM/0.5 nM/2.5 nM in a Optiplate-384F plate and incubated at room temperature for 10 minutes. After that, ATP with final concentration of 1 mM and 3 μM Kinase Substrate 30 (GL Biochem, Cat. 117885) were added and mixed well. The reaction was carried out at room temperature for 20 min. Stop test solution was added to stop the reaction and the conversion rate was read by Caliper EZ Reader II.
(§4) Conversion %_sample: the conversion rate reading of the sample;
(§5) Conversion %_min: mean value of negative control, representing the conversion rate reading without kinase activity;
(§6) Coversion %_max: mean value of positive control, representing the conversion rate reading without compound inhibition.

Tyk2 [2] = experiment: as above; conditions: ratio of JAK2 IC50 to TyK2 IC50
Experimental: as §1, §2, §3, §4, §5, §6

JAK2 = JAK2 (Homo sapiens, UniProt O60674); experiment: Mobility shift assay, inhibitory activity on JAK2 kinase; conditions: JAK2 0.125 nM, ATP 1 mM, 3 μM Kinase Substrate 30
Experimental: as §1, §2, §3, §4, §5, §6

IC50 (Tyk2 [1]) | Selectivity of JAK2/TyK2 (Tyk2 [2]) | IC50 (JAK2) | SMILES
139 nM | – | – | CC(=O)Nc1nn([C@]2(CC#N)C[C@@H](C#N)C2)cc1-c1nc(-c2cnn(C)c2)cn2nccc12 [Example 40, N-(1-((1r,3r)-3-cyano-1-(cyanomethyl)cyclobutyl)-4-(6-(1-methyl-1H-pyrazol-4-yl)pyrazolo[1,5-a]pyrazin-4-yl)-1H-pyrazol-3-yl)acetamide]
1760 nM | – | – | CC(C)S(=O)(=O)N1CC(CC#N)(n2cc(-c3nc(-c4cnn(C)c4)cn4ncc(C#N)c34)c(N)n2)C1 [Example 4, 4-(3-amino-1-(3-(cyanomethyl)-1-(isopropylsulfonyl)azetidin-3-yl)-1H-pyrazol-4-yl)-6-(1-methyl-1H-pyrazol-4-yl)pyrazolo[1,5-a]pyrazine-3-carbonitrile]
0.41 nM | 24.4 | 10 nM | Cn1cc(-c2cn3nccc3c(-c3cn([C@]4(CC#N)C[C@H](C#N)C4)c4ncncc34)n2)cn1 [Example 50, (1r,3r)-3-(cyanomethyl)-3-(5-(6-(1-methyl-1H-pyrazol-4-yl)pyrazolo[1,5-a]pyrazin-4-yl)-7H-pyrrolo[2,3-d]pyrimidin-7-yl)cyclobutane-1-carbonitrile]
0.13 nM | – | 0.25 nM | Cn1cc(-c2cn3nccc3c(-c3cn([C@]4(CC#N)C[C@H](C#N)C4)nc3N)n2)cn1 [Example 10, (1s,3s)-3-(3-amino-4-(6-(1-methyl-1H-pyrazol-4-yl)pyrazolo[1,5-a]pyrazin-4-yl)-1H-pyrazol-1-yl)-3-(cyanomethyl)cyclobutyl-1-carbonitrile]
186 nM | – | – | Cn1cc(-c2cn3nccc3c(-c3cn([C@]4(CC#N)C[C@H](C#N)C4)c4ccncc34)n2)cn1 [Example 47, (1s,3s)-3-(cyanomethyl)-3-(3-(6-(1-methyl-1H-pyrazol-4-yl)pyrazolo[1,5-a]pyrazin-4-yl)-1H-pyrrolo[3,2-c]pyridin-1-yl)cyclobutane-1-carbonitrile]
2.1 nM | 36.6 | 77 nM | CC(C)S(=O)(=O)N1CC(CC#N)(n2cc(-c3nc(-c4cnn(C)c4)cn4nccc34)c(N)n2)C1 [Example 3, 2-(3-(3-amino-4-(6-(1-methyl-1H-pyrazol-4-yl)pyrazolo[1,5-a]pyrazin-4-yl)-1H-pyrazol-1-yl)-1-(isopropylsulfonyl)azetidin-3-yl)acetonitrile]
0.17 nM | – | 14 nM | Cn1cc(-c2cn3nccc3c(-c3cn([C@]4(CC#N)C[C@@H](C#N)C4)nc3N)n2)cn1 [Example 9, (1r,3r)-3-(3-amino-4-(6-(1-methyl-1H-pyrazol-4-yl)pyrazolo[1,5-a]pyrazin-4-yl)-1H-pyrazol-1-yl)-3-(cyanomethyl)cyclobutyl-1-carbonitrile]
118 nM | – | – | Cn1cc(-c2cn3nccc3c(-c3cn([C@]4(CC#N)C[C@H](C#N)C4)c4ncncc34)n2)cn1 [Example 49, (1s,3s)-3-(cyanomethyl)-3-(5-(6-(1-methyl-1H-pyrazol-4-yl)pyrazolo[1,5-a]pyrazin-4-yl)-7H-pyrrolo[2,3-d]pyrimidin-7-yl)cyclobutane-1-carbonitrile]
0.38 nM | 168 | 64 nM | CCS(=O)(=O)N1CC(CC#N)(n2cc(-c3nc(-c4cnn(C)c4)cn4nccc34)c(N)n2)C1 [Example 2, 2-(3-(3-amino-4-(6-(1-methyl-TH-pyrazol-4-yl)pyrazolo[1,5-a]pyrazin-4-yl)-1H-pyrazol-1-yl)-1-(ethylsulfonyl)azetidin-3-yl)acetonitrile]
37 nM | – | – | Cn1cc(-c2cn3ncnc3c(-c3cn([C@]4(CC#N)C[C@@H](C#N)C4)nc3N)n2)cn1 [Example 41, (1r,3r)-3-(3-amino-4-(6-(1-methyl-1H-pyrazol-4-yl)-[1,2,4]triazolo[1,5-a)pyrazin-8-yl)-1H-pyrazol-1-yl)-3-(cyanomethyl)cyclobutane-1-carbonitrile]
375 nM | – | – | Cn1cc(-c2cc(-c3cn([C@]4(CC#N)C[C@@H](C#N)C4)nc3N)c3ccnn3c2)cn1 [Example 42, (1r,3r)-3-(3-amino-4-(6-(1-methyl-1H-pyrazol-4-yl)pyrazolo[1,5-a]pyridin-4-yl)-1H-pyrazol-1-yl)-3-(cyanomethyl)cyclobutane-1-carbonitrile]
0.42 nM | 210 | 88 nM | Cn1cc(-c2cn3nccc3c(-c3cn(C4(CC#N)CN(CC#N)C4)nc3N)n2)cn1 [Example 1, 2,2′-(3-(3-amino-4-(6-(1-methyl-1H-pyrazol-4-yl)pyrazolo[1,5-a]pyrazine-4-yl)-1H-pyrazol-1-yl)azetidine-1,3-diyl)diacetonitrile]
0.33 nM | 20 | 6.7 nM | CNc1nn([C@]2(CC#N)C[C@@H](C#N)C2)cc1-c1nc(-c2cnn(C)c2)cn2nccc12 [Example 38, (1r,3r)-3-(cyanomethyl)-3-(4-(6-(1-methyl-1H-pyrazol-4-yl)pyrazolo[1,5-a]pyrazin-4-yl)-3-(methylamino)-1H-pyrazol-1-yl)cyclobutane-1-carbonitrile]
3.7 nM | 54 | 200 nM | CN(C)c1nn([C@]2(CC#N)C[C@@H](C#N)C2)cc1-c1nc(-c2cnn(C)c2)cn2nccc12 [Example 39, (1r,3r)-3-(cyanomethyl)-3-(3-(dimethylamino)-4-(6-(1-methyl-1H-pyrazol-4-yl)pyrazolo[1,5-a]pyrazin-4-yl)-1H-pyrazol-1-yl)cyclobutane-1-carbonitrile]
43 nM | – | – | Cn1cc(-c2cc(-c3cn([C@]4(CC#N)C[C@H](C#N)C4)nc3N)c3ccnn3c2)cn1 [Example 43, (is, 3s)-3-(3-amino-4-(6-(1-methyl-TH-pyrazol-4-yl)pyrazolo[1,5-a]pyridin-4-yl)-1H-pyrazol-1-yl)-3-(cyanomethyl)cyclobutane-1-carbonitrile]
0.36 nM | 22.5 | 8.1 nM | Cn1cc(-c2cn3nccc3c(-c3cn([C@]4(CC#N)C[C@@H](C#N)C4)c4ccncc34)n2)cn1 [Example 48, (1r,3r)-3-(cyanomethyl)-3-(3-(6-(1-methyl-1H-pyrazol-4-yl)pyrazolo[1,5-a]pyrazin-4-yl)-1H-pyrrolo[3,2-c]pyridin-1-yl)cyclobutane-1-carbonitrile]

Source: patent publication US12404275B2, “Pyrazolopyrazine derived compounds, pharmaceutical composition and use thereof” (PrimeGene (Beijing) Co., Ltd., priority 2019, dated 2025)
